Experimental data taken from the Kinase Knowledgebase extract (Sharma et al. 2016).
Where “and” joins values, the source holds several entries; their conditions need not be identical. Identical values can stand only once.

Legend:
EGFR (human) [1] = target: EGFR (human) (UniProt P00533); settings: a431
EGFR (human) [2] = target: EGFR (human) (UniProt P00533); settings: igrov-1
EGFR (human) [3] = target: EGFR (human) (UniProt P00533); settings: skov-3
EGFR (mouse) = EGFR (mouse) (UniProt P00533); settings: nih3t3
EGFR (human) [4] = target: EGFR (human) (UniProt P00533); settings: a431; remark: listed apart in the source
EGFR = EGFR (UniProt P00533)
Sequence of EGFR (P00533 whole entry, looked up): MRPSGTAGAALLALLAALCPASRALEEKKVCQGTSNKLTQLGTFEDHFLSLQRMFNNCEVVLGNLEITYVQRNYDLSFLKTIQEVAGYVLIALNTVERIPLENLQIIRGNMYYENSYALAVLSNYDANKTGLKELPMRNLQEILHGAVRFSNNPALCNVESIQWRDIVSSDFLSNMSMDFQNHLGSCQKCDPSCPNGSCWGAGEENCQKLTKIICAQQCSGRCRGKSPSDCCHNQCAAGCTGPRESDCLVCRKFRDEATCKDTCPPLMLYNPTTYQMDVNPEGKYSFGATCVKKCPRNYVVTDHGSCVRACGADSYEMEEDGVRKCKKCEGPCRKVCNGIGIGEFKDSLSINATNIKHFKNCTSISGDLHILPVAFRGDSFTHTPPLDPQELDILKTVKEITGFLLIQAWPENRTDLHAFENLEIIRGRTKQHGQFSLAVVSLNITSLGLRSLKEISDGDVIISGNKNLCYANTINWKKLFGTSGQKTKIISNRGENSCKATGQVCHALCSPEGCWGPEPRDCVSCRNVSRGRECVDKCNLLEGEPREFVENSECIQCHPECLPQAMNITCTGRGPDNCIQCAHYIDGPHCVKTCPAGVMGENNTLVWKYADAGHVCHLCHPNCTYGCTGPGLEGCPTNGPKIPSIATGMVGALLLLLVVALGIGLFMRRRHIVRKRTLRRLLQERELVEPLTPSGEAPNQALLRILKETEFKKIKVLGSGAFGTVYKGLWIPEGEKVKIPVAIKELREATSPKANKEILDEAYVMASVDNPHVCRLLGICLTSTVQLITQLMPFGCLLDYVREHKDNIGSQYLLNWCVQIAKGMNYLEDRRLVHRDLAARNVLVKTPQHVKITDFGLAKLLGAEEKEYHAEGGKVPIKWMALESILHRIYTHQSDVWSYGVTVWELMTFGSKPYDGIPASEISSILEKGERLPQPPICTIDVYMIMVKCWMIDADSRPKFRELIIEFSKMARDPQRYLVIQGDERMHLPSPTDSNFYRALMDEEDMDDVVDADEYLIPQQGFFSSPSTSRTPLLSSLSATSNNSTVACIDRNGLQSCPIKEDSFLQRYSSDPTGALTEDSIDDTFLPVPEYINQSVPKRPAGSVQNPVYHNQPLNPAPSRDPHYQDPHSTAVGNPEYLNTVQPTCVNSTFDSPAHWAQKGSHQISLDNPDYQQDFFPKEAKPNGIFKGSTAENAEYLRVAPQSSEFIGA

Sequence of EGFR (human) (P00533 whole entry, looked up): as above

SMILES | IC50 (EGFR (human) [1]) | IC50 (EGFR (human) [2]) [µM] | IC50 (EGFR (human) [3]) [µM] | IC50 (EGFR (mouse)) [µM] | IC50 (EGFR (human) [4]) [µM] | IC50 (EGFR) [µM]
CC(=O)Oc1ccc(OC(C)=O)c2c1CC(C)=CCC[C@]13O[C@H]1[C@H]2OC3=O | 22 µM and 100 µM | 22.4 | 41.2 | 8.3 | 15.8 | 
COc1ccc(OC)c2c1CC(C)=CCC[C@]13O[C@H]1[C@H]2OC3=O |  | > 100 | > 100 |  | > 100 | 
CC1=CCC[C@]23O[C@H]2[C@@H](OC3=O)C2=C(C1)C(=O)C(O)=CC2=O |  | 0.8 | 1 | 0.02 | 0.1 | 5.5
CC1=CCC[C@]23O[C@H]2[C@@H](OC3=O)C2=C(C1)C(=O)C=CC2=O | 100 µM and > 100 µM | 6.1 | 21.9 |  | 3.6 | 27
CC1=CCC[C@]23O[C@H]2[C@@H](OC3=O)c2c(O)ccc(O)c2C1 |  |  |  |  |  | 26
